Measured values as given in US7276484B2, “Dipeptide inhibitors of β-secretase” (Elan Pharmaceuticals, Inc., priority 1999, dated 2007).
Numbered stars: 1 amine (or outer) side, 2 acyl side, 3 side chain; on linkers, the order of the positions; unused ones are H or OH. Square brackets hold non-standard residues; d marks the D form. Ends that are not written are not given here. Peptide text beside a SMILES is read from it. * marks the point of attachment. 3,5‑difluoroPhe/Sta = 3,5-difluorobenzyl statine, O=C(C[C@H](O)[C@H](Cc1cc(F)cc(F)c1)N[*:1])[*:2]; Sta = CC(C)C[C@H](N)[C@@H](O)CC(=O)O; Isovaleryl = CC(C)CC(=O)*

Experiments:
[1] = molecular target: T1, Human brain β-Secretase (Homo sapiens, UniProt P56817); test: MBP-C125 enzyme inhibition assay (ELISA detection of β-secretase cleavage of MBP-C125 substrate); format: biochemical; settings: pH 4.5, 37° C., 90 minutes, read-out: IC50 Grouping
T1 construct: Human brain β-Secretase from concentrated HiQ pool prepared Jul; from tissue; host or cells: human brain
T1 sequence (P56817 46-501): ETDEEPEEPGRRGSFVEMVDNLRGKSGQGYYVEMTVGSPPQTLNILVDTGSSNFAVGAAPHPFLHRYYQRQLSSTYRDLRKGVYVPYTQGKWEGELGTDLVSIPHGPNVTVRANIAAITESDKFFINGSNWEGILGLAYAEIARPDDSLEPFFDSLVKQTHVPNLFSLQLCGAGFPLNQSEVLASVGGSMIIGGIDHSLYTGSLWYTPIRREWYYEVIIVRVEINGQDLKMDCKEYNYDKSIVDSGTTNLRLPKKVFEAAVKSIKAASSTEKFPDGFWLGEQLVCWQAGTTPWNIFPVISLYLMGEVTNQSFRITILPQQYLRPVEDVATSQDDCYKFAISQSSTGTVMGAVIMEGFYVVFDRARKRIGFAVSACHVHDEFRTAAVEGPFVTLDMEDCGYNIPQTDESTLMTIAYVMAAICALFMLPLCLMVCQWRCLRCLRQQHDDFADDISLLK
Description: The inhibitory concentration data was obtained by use of the MBP-C125 assay, which determines the relative inhibition of β-secretase cleavage of an MPB-C125 substrate by the compounds assayed. Human brain β-Secretase from concentrated HiQ pool prepared Jul.
Inhibition data was obtained from an ELISA which uses an anti-MBP capture antibody (on precoated and blocked 96-well high binding plates) followed by incubation with diluted enzyme reaction supernatant, incubation with an anti-SW192 specific biotinylated reporter antibody and incubation with streptavidin/alkaline phosphatase. Detection was effected by a fluorescent substrate signal on cleavage by the phosphatase.
Compounds were diluted in a 1:1 dilution series to a six-point concentration curve (two wells per concentration) which took up one 96-plate row per compound tested.
Each of the test compounds was weighed out into a vial and DMSO was added to make up a 10 mM solution. To obtain a final compound concentration of 200 μM at the high point of a 6-point dilution curve, 100 μL of the 10 mM solution was added to well C1 of a 96-well V-bottom plate. Fifty μL of DMSO was added to odd wells of row C across the plate and 1:1 serial dilutions were made. 10 μL of each dilution was added to each of two wells on row C of a corresponding V-bottom plate to which 190 μL of 52 mM NaOAc/7.9% DMSO, pH 4.5 were pre-added. […] The compound concentration in the final enzyme reaction was thus 50 times less than the starting concentration. The final reaction mixture of 200 μM compound for the highest curve point was in 5% DMSO, 20 mM NaAc, 0.06% TX100, at pH 4.5. The enzyme reaction was started by warming the plates to 37° C. After 90 minutes at 37° C., 200 μL/well cold specimen diluent was added to stop the reaction and 20 μL/well was transferred to a corresponding α-MBP coated ELISA plate, containing 80 μL/well specimen diluent. […] The signal was read on a fluorescent plate reader.

[2] = molecular target: β-secretase (Homo sapiens, UniProt P56817); test: assays with β-secretase (pepstatin remark); format: biochemical
Chain of β-secretase (P56817 46-501): as above

[3] = molecular target: Human brain β-Secretase (human, UniProt P56817 46-501, limits assumed); test: cell-based or functional assay
Chain of Human brain β-Secretase (human, UniProt P56817 46-501, limits assumed) (P56817 46-501 limits assumed): as the sequence (P56817 46-501) above

| Molecule | IC50 [1] [µM] | further results |
| --- | --- | --- |
| COC(=O)c1cccc(C(=O)N[C@@H](Cc2cc(F)cc(F)c2)[C@@H](O)CC(=O)N[C@H](C(=O)NC2CC(C(=O)O)C[C@H](C(=O)O)C2)C(C)C)c1 (some centres unmarked) [Example 39] | < 10 |  |
| CC(C)CC(=O)N[C@H](C(=O)N[C@H](C(=O)N[C@@H](CC(C)C)[C@@H](O)CC(=O)N[C@@H](C)C(=O)N[C@@H](CC(C)C)[C@@H](O)CC(=O)O)C(C)C)C(C)C [pepstatin] (Isovaleryl-VV[Sta]A[Sta]-OH) |  | inhibitory activity in assays with β-secretase [2]: no inhibitory activity |
| glutaric acid piperidine amide coupled with the derivatized Sta-Val-Ala-Glu-Phe pentapeptide [Example 33] | 10 to 99 |  |
| 2-carboxy-diphenylether coupled with the peptide 3,5-difluoroPhe/Sta-Val-Ala-Glu-Phe [Example 29] | < 10 |  |
| CCCN(CCC)C(=O)c1cccc(CNC(Cc2cc(F)cc(F)c2)C(O)CC(=O)NC(C(=O)NC2CC(C(=O)O)CC(C(=O)O)C2)C(C)C)c1 (stereo not drawn) [Example 54, 3-N,N-di-n-propyl-carboxamidobenzyl-difluorophenylstatine-Val-1-amino-3,5-cis,cis-cyclohexyldicarboxylic acid] | < 10 |  |
| 4-carboxycinnoline coupled to the 3,5-difluoroPhe/Sta-Val-Ala-Glu-Phe [Example 44] | 10 to 99 |  |
| geminal dimethyl glutaric dimethylamide group coupled to the derivatized Sta-Val-Ala-Glu-Phe pentapeptide [Example 32] | 10 to 99 |  |
| {2‑carboxy‑diphenylether}-[3,5‑difluoroPhe/Sta]VAEF [Example 29: 2-carboxy-diphenylether coupled with the peptide 3,5-difluoroPhe/Sta-Val-Ala-Glu-Phe] |  | IC50 Grouping (MBP-C125 enzyme inhibition assay, ELISA read-out) [3]: < 10 µM |
